Test results published in patent publication US10265327B2, “V1A antagonists to treat phase shift sleep disorders” (Hoffmann-La Roche Inc., priority 2013, dated 2019).
“Also recorded” adds a separate entry of the source.

System: C57BL/6J mice
Assay: Jet-lag test: behavioural re-entrainment to 6 h phase advance of the LD cycle
Format: in vivo, mouse
Conditions: for days to total behavioural re-entrainment after the 6 h phase shift: mean ± SEM, n=5
Method: In all studies described below, male young-adult C57BL/6J mice (4 weeks old at the beginning of experiments) were used. Animals were exposed to a light-dark cycle (LD) 12:12 (lights on from 8 h to 20 h geographical time; light intensity at 200 lux; during dark period dim red light of 5 lux) in individual cages with food and water ad libitum and temperature (22±1° C.) and humidity (55%±5%) controlled. LD cycle was represented as zeitgeber times (ZT) where ZT0 represents the lights on and ZT12 lights off. When animals were exposed to constant darkness conditions (DD), circadian times (CT) were used as time point references, where CT12 corresponds to activity onset.
To evaluate the effects of the V1a antagonist trans-8-chloro-5-methyl-1-(4-pyridin-2-yloxycyclohexyl)-4,6-dihydro-[1,2,4]triazolo[4,3-a][1,4]benzodiazepine on light synchronization of behavioural circadian rhythms, a jet-lag protocol of 6 h phase shift was used. After being under a LD cycle 12 h/12 h (for at least 10 days), mice were exposed to a 6 -h phase advance of the light-dark cycle (first “jet-lag” test, advance shift) and to the administration of vehicle or 30 mg/kg of the V1a antagonist trans-8-chloro-5-methyl-1-(4-pyridin-2-yloxycyclohexyl)-4,6-dihydro-[1,2,4]triazolo[4,3-a][1,4]benzodiazepine. On the day of the shift, the time of lights off was phase-advanced by 6 h. Here we used three groups of animals: a sham group (Group 1, n=3), animals in which the cannula was introduced in the oral cavity without any solution delivery; a vehicle group (Group 2, n=4), which received vehicle, and a 30 mg/kg trans-8-chloro-5-methyl-1-(4-pyridin-2-yloxycyclohexyl)-4,6-dihydro-[1,2,4]triazolo[4,3-a][1,4]benzodiazepine group (Group 3, n=5). All manipulations were at ZT6 (6 h after lights on) on the last LD cycle before the 6 h phase advance.
In a second experiment, using naive animals, a second jet-lag test was evaluated. Thus, using a new group of male mice, the effects of 30 mg/kg trans-8-chloro-5-methyl-1-(4-pyridin-2-yloxycyclohexyl)-4,6-dihydro-[1,2,4]triazolo[4,3-a][1,4]benzodiazepine on the re-synchronization to a 6 h phase advance of the LD cycle were tested. Animals under a LD cycle 12 h/12 h (for at least 10 days) were exposed to a phase advance of 6 h of the LD cycle and to the administration of vehicle or 30 mg/kg of the V1a antagonist trans-8-chloro-5-methyl-1-(4-pyridin-2-yloxycyclohexyl)-4,6-dihydro-[1,2,4]triazolo[4,3 -a][1,4]benzodiazepine at ZT/CT6. Similarly to the previous experiment, three groups of animals were used: a sham group (Group 1, n=3), animals in which the cannula was introduced in the oral cavity without any solution delivery; a vehicle group (Group 2, n=4) which received vehicle, and a 30 mg/kg trans-8-chloro-5-methyl-1 -(4-pyridin-2-yloxycyclohexyl)-4,6-dihydro-[1,2,4]triazolo[4,3 -a][1,4]benzodiazepine group (Group 3, n=5).
The locomotor activity rhythms were measured using infra-red detectors on the top of the cages and/or running wheels.
Re-entrainment (jet-lag tests): For 6 h phase-shift (jet-lag protocol) the number of days after the shift for total re-entrainment was quantified, considering both the onset and offset of activity. The onsets and offsets of activity were identified automatically using ClockLab software. Thus, full resynchronization to a new LD cycle, after 6-hour phase shifts of the time of lights off, was considered when activity onset took place at the new time of lights off ±30 minutes. The number of days (transitory cycles) required to re-synchronize was calculated for each mouse. The speed of re-entrainment was evaluated calculating the onset of activity and the advance of it, in hours, daily. To evaluate the effects of manipulations on locomotion, the locomotor activity changes from 0 to 6 h after each treatment were quantified in 30 min intervals (see activity profiles determination).
Values in all experiments are means ±SEM. […]

## CN1Cc2cc(Cl)ccc2-n2c(nnc2[C@H]2CC[C@H](Oc3ccccn3)CC2)C1 [Example 1, trans-8-chloro-5-methyl-1-(4-pyridin-2-yloxycyclohexyl)-4,6-dihydro-[1,2,4]triazolo[4,3-a][1,4]benzodiazepine]
Both jet-lag experiments, 30 mg/kg
  re-entrainment of the circadian clock to a new LD cycle (overall conclusion): accelerates the re-entrainment
jet-lag test 1, 30 mg/kg at ZT6, 0 to 6 h after treatment
  locomotor activity induced by manipulations: not significantly different between groups
jet-lag test 1, 30 mg/kg at ZT6, first 5 days after the shift, 30 mg/kg
  daily adjustment of onset of activity to the LD cycle (speed of re-entrainment): much more rapid daily adjustment; also recorded: significantly faster re-entrainment
jet-lag test 1, 30 mg/kg oral at ZT6
  days to total behavioural re-entrainment after the 6 h phase shift: 3.2 ± 0.33 days
Second jet-lag test, naive mice, 30 mg/kg at ZT/CT6
  increase in locomotion induced by manipulations: not significantly different between groups
Second jet-lag test, naive mice, 30 mg/kg at ZT/CT6, first 4 days after the shift, 30 mg/kg
  daily adjustment of onset of activity to the LD cycle (speed of re-entrainment): much more rapid daily adjustment; also recorded: significantly faster re-entrainment
Second jet-lag test, naive mice, 30 mg/kg oral at ZT/CT6
  days to total behavioural re-entrainment after the 6 h phase shift: 3.4 ± 0.24 days
